Experimental data taken from PubChem BioAssay (NCI).
Where “and” joins values, the source holds several entries; their conditions need not be identical. Equal values may be shown once.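 All cell lines were grown in 96-well plates and treated with compound for 48 hours. GI50 = concentration required for 50% inhibition of growth. TGI marks complete inhibition of growth.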

Columns and labels:
Assay in all cases: growth of human tumour cells (NCI), 48 h
[1] = test system: MDA-MB-435
[2] = test system: SF-268 CNS
[3] = test system: LOX IMVI melanoma
[4] = test system: UACC-257 melanoma
[5] = test system: NCI-H460 lung
[6] = test system: A498 renal
[7] = test system: OVCAR-3 ovarian
[8] = test system: A549 NSCLC
[9] = test system: IGROV1 ovarian
[10] = test system: NCI-H522 lung

O=C(O)COc1ccc(OCC(=O)O)cc1
GI50 [1]: 3.36 µM
TGI [1]: 16.4 µM
GI50 [2]: 0.584 µM
TGI [2]: 13.5 µM
GI50 [3]: 0.276 µM
TGI [3]: 2.34 µM
GI50 [4]: 2.53 µM
TGI [4]: 18.5 µM
GI50 [5]: 0.0609 µM
TGI [5]: 1.51 µM
GI50 [6]: 1.06 µM
TGI [6]: 4.87 µM
GI50 [7]: 2.5 µM
TGI [7]: 36.3 µM
GI50 [8]: 0.432 µM
TGI [8]: 2.16 µM
GI50 [9]: 1.8 µM
TGI [9]: 33 µM
GI50 [10]: 0.302 µM
TGI [10]: 3.22 µM

O=C1C=CC(=O)c2c1ccc1c3ccccc3n(Cc3ccccc3)c21
TGI [1]: > 56.8 µM
TGI [2]: > 77.6 µM
TGI [3]: 52.3 µM
TGI [4]: 40.9 µM
TGI [5]: > 100 µM
TGI [6]: 44.3 µM
TGI [7]: 33 µM
TGI [8]: > 100 µM
TGI [9]: 46.2 µM
TGI [10]: 19.9 µM

CC12CCC(=O)C(O1)C1C(=O)c3ccc4c(ccc5ccccc54)c3C(=O)C12 (configuration not stated)
GI50 [1]: 13 µM
TGI [1]: 26.4 µM
GI50 [2]: 15.3 µM
TGI [2]: 36.1 µM
GI50 [3]: 0.477 µM
TGI [3]: 3.57 µM
GI50 [4]: 3.11 µM
TGI [4]: 8.15 µM
GI50 [5]: 4.84 µM
TGI [5]: 11.8 µM
GI50 [6]: 3.08 µM
TGI [6]: 5.83 µM
GI50 [7]: 1.2 µM
TGI [7]: 2.64 µM
GI50 [8]: 9.34 µM
TGI [8]: 33.2 µM
GI50 [9]: 7.09 µM
TGI [9]: > 100 µM
GI50 [10]: 5.52 µM
TGI [10]: 14.3 µM

O=C1CS/C(=N/S(=O)(=O)c2ccc(N3N=C4c5ccccc5CC4C3c3cccs3)cc2)N1C(=O)c1ccccc1 (configuration not stated)
GI50 [1]: 37.4 µM
TGI [1]: > 100 µM
GI50 [2]: > 100 µM
TGI [2]: > 100 µM
GI50 [3]: 22.7 µM
TGI [3]: 54 µM
GI50 [4]: > 100 µM
TGI [4]: > 100 µM
GI50 [5]: > 100 µM
TGI [5]: > 100 µM
GI50 [6]: 23.6 µM
TGI [6]: 94.6 µM
GI50 [7]: 59.2 µM
TGI [7]: > 100 µM
GI50 [8]: 70.8 µM
TGI [8]: > 100 µM
GI50 [9]: 28.3 µM
TGI [9]: > 100 µM
GI50 [10]: 60.1 µM
TGI [10]: > 100 µM

O=C1NC(=O)C(=Cc2cn(Cc3ccccc3)c3ccccc23)C(=O)N1
GI50 [1]: 17.9 µM
TGI [1]: 42.3 µM
GI50 [2]: 15.8 µM
TGI [2]: 32.9 µM
GI50 [3]: 14.1 µM
TGI [3]: 33.1 µM
GI50 [4]: 7.07 µM
TGI [4]: 35.1 µM
GI50 [5]: 0.264 µM
TGI [5]: 13.4 µM
GI50 [6]: 0.125 µM
TGI [6]: 0.594 µM
GI50 [7]: 5.75 µM
TGI [7]: 19.4 µM
GI50 [8]: 13 µM
TGI [8]: 30.7 µM
GI50 [9]: 0.489 µM
TGI [9]: 10.5 µM
GI50 [10]: 13.1 µM
TGI [10]: 37.2 µM

FC(F)c1ncc(-c2ccc(C(F)(F)F)cc2)c(NC2CCCCCC2)n1
GI50 [1]: > 10 µM
TGI [1]: > 10 µM
GI50 [2]: > 10 µM
TGI [2]: > 10 µM
GI50 [3]: > 10 µM
TGI [3]: > 10 µM
GI50 [4]: > 10 µM
TGI [4]: > 10 µM
GI50 [5]: > 10 µM
TGI [5]: > 10 µM
GI50 [6]: > 10 µM
TGI [6]: > 10 µM
GI50 [7]: > 10 µM
TGI [7]: > 10 µM
GI50 [8]: > 10 µM
TGI [8]: > 10 µM
GI50 [9]: > 10 µM
TGI [9]: > 10 µM
GI50 [10]: > 10 µM
TGI [10]: > 10 µM

CCc1ccc2oc(=O)ccc2c1
TGI [1]: > 100 µM
TGI [2]: > 100 µM
TGI [3]: > 100 µM
TGI [4]: > 100 µM
TGI [5]: > 100 µM
TGI [6]: > 100 µM
TGI [7]: > 100 µM
TGI [8]: > 100 µM
TGI [9]: > 100 µM
TGI [10]: > 100 µM

CN1CCN(Cc2ccc(NC(=O)c3[nH]ncc3Nc3ncnc4[nH]ccc34)cc2)CC1
GI50 [1]: 0.298 µM
TGI [1]: 1.71 µM
GI50 [2]: 0.374 µM
TGI [2]: 1.42 µM
GI50 [3]: 0.201 µM
TGI [3]: 0.759 µM
GI50 [4]: 0.531 µM
TGI [4]: 17.8 µM
GI50 [5]: 0.328 µM
TGI [5]: 4.67 µM
GI50 [6]: 0.149 µM
TGI [6]: 0.406 µM
GI50 [7]: 0.255 µM
TGI [7]: 0.797 µM
GI50 [8]: 0.742 µM
TGI [8]: 10.8 µM
GI50 [9]: 0.436 µM
TGI [9]: 10.7 µM
GI50 [10]: 0.283 µM
TGI [10]: 1.63 µM

Cc1cc(=O)[nH]c(N/N=C/c2ccccc2O)n1
GI50 [1]: 18.7 µM
TGI [1]: > 100 µM
GI50 [2]: 7.75 µM
TGI [2]: > 100 µM
GI50 [3]: 8.02 µM
TGI [3]: > 100 µM
GI50 [4]: 3.67 µM
TGI [4]: 34.7 µM
GI50 [5]: 4.72 µM
TGI [5]: > 100 µM
GI50 [6]: 20.5 µM
TGI [6]: 93.2 µM
GI50 [7]: 4.15 µM
TGI [7]: > 100 µM
GI50 [8]: 4.4 µM
TGI [8]: > 100 µM
GI50 [9]: 3.77 µM
TGI [9]: > 100 µM
GI50 [10]: 7.67 µM
TGI [10]: > 100 µM

Cc1c(Nc2nccc3cc(CN4CC[C@@H](O)C4)cnc23)cccc1-c1cccc(-c2nc3cc(CN4CC[C@@H](C(=O)O)C4)cc(C#N)c3o2)c1C
GI50 [1]: 15.3 µM
TGI [1]: 35.1 µM
GI50 [2]: 10.9 µM
TGI [2]: > 100 µM
GI50 [3]: 1.97 µM
TGI [3]: 4.27 µM
GI50 [4]: 14.2 µM
TGI [4]: 32.5 µM
GI50 [5]: 7.15 µM
TGI [5]: 21.8 µM
GI50 [6]: > 100 µM
TGI [6]: > 100 µM
GI50 [7]: 14.8 µM
TGI [7]: > 100 µM
GI50 [8]: 5.33 µM
TGI [8]: 19.1 µM
GI50 [9]: 8.45 µM
TGI [9]: > 100 µM
GI50 [10]: 13.1 µM
TGI [10]: 30.6 µM

CCCCC#Cc1c(I)n(C2OC(CO[Si](C)(C)C(C)(C)C)C3OC(C)(C)OC32)c(=O)n(C(=O)c2ccccc2)c1=O (configuration not stated)
GI50 [1]: 1.77 µM
TGI [1]: 3.87 µM
GI50 [2]: 2.06 µM
TGI [2]: 4.85 µM
GI50 [3]: 5.54 µM
TGI [3]: 38.5 µM
GI50 [4]: 16.4 µM
TGI [4]: 30.7 µM
GI50 [5]: 10.9 µM
TGI [5]: 27.4 µM
GI50 [6]: 30.9 µM
TGI [6]: 98.3 µM
GI50 [7]: 1.47 µM
TGI [7]: 2.82 µM
GI50 [8]: > 100 µM
TGI [8]: > 100 µM
GI50 [9]: 3.96 µM
TGI [9]: 13.4 µM
GI50 [10]: 1.84 µM
TGI [10]: 3.93 µM

Cc1ccc2oc(=O)c3c(O)c4cccc(OC5OC(C)C6O[C@@H](c7ccccc7)OC6C5OC5OC(C)C(O)C(O)C5O)c4c4oc(=O)c1c2c34 (some centres not stated)
TGI [1]: 1.9 µM
TGI [2]: 1.59 µM and 1.71 µM
GI50 [3]: 0.0293 µM and 0.0483 µM
TGI [3]: 0.538 µM and 1.51 µM
GI50 [4]: 0.309 µM
TGI [4]: 1.82 µM and 2.12 µM
GI50 [5]: 0.00467 µM
TGI [5]: 1.03 µM and 0.545 µM
GI50 [6]: 0.167 µM
TGI [6]: 1.22 µM and 0.95 µM
TGI [7]: 3.96 µM
GI50 [8]: 0.0214 µM
TGI [8]: 0.521 µM and 0.924 µM
GI50 [9]: 0.0315 µM
TGI [9]: 1.39 µM and 1.32 µM
GI50 [10]: 0.104 µM
TGI [10]: 0.294 µM and 1.38 µM

CC(=O)c1c[nH]c2ccc(-c3ccnc(Nc4ccc(NC(=O)C5CCCC5)c(CN5CCOCC5)c4)n3)cc12
GI50 [1]: 0.0286 µM
TGI [1]: 0.121 µM
GI50 [2]: 0.033 µM
TGI [2]: 0.159 µM
GI50 [3]: 0.0132 µM
TGI [3]: 0.0479 µM
GI50 [4]: 0.0349 µM
TGI [4]: 0.175 µM
GI50 [5]: 0.033 µM
TGI [5]: 0.125 µM
GI50 [6]: 0.0204 µM
TGI [6]: 0.0558 µM
GI50 [7]: 0.0267 µM
TGI [7]: 0.678 µM
GI50 [8]: 0.0312 µM
TGI [8]: 1.54 µM
GI50 [9]: 0.0366 µM
TGI [9]: 0.377 µM
GI50 [10]: 0.0439 µM
TGI [10]: 0.309 µM

Cc1nn(C)c2ncnc(N/N=C/c3cccc(O)c3O)c12
GI50 [1]: 0.609 µM
TGI [1]: > 100 µM
GI50 [2]: 0.342 µM
TGI [2]: 20.4 µM
GI50 [3]: 0.238 µM
TGI [3]: 4.05 µM
GI50 [4]: 1.38 µM
TGI [4]: > 37.1 µM
GI50 [5]: 0.431 µM
TGI [5]: > 39.7 µM
GI50 [6]: 2.97 µM
TGI [6]: 16.3 µM
GI50 [7]: 0.356 µM
TGI [7]: > 100 µM
GI50 [8]: 2.11 µM
TGI [8]: > 100 µM
GI50 [9]: 1.78 µM
TGI [9]: > 30.4 µM
GI50 [10]: 0.41 µM
TGI [10]: > 48.2 µM
